Structures can show the parent of a compound that is named as a salt.
Target: T1, Thrombin (from human plasma) (Homo sapiens, UniProt P00734)
T1 construct: Thrombin (from human plasma); purchased Sigma-Aldrich; host or cells: human plasma
Experiment: on-chip thrombin inhibition assay (S-2238 hydrolysis, absorbance 405 nm)
Assay type: biochemical
Conditions: for thrombin
Protocol: To enhance the performance of the on-chip assay, experimental parameters such as concentrations of enzymes and substrates, substrate reaction time, and incubation time of samples and enzymes were stepwise optimized. The activity of thrombin was determined by measuring the hydrolysis of chromogenic substrate S-2238 (HD-Phe-Pip-Arg-pNA) at 405 nm. As depicted in Fig. 2a, the absorbance increased rapidly along with the elevated concentrations of thrombin, while it reached a plateau at 0.5 U/mL. […] Moreover, it was clear from Fig. 2d that the maximum inhibitory effect of QSYQ sample (I1 of Table 1 in this assay) on thrombin was observed after 60 min of incubation. Therefore, to achieve favorable response and prevent signal saturation, optimal assay conditions for thrombin were determined to be 0.2 U/mL, 0.31 mM, 30 min and 60 min for the final concentrations of thrombin and S-2238, substrate reaction time and incubation time, respectively. […] In this assay, the concentrations of ACE and FAPGG were finally set at 0.027 U/mL and 0.72 mM, where the background value was lower and the reaction time was relatively shorter (30 min).
The optimized protocol was first applied to assess the quality of 11 batches of QSYQ intermediates (Table 1). Enzyme inhibition (in percentages) was employed as an indicator of drug quality and calculated according to the following equations: thrombin inhibition (%) = [1 − (AQSYQ/Ablank)] × 100; ACE inhibition (%) = [1 − (ΔAQSYQ/ΔAblank)] × 100; where AQSYQ and Ablank were the absorbance of the test sample and the blank sample after the enzymatic reaction (the background value was subtracted), and ΔAQSYQ and ΔAblank were the absorbance decrease between 0 min and 30 min of the samples. A scatter plot was generated to display the inhibition result of thrombin and ACE simultaneously. […] Moreover, artificial abnormal samples I6, I7 and I8, each with one abnormal (pre-extracted) herb, presented relatively lower inhibitions compared with I1.
Thrombin (from human plasma), ACE (from rabbit lung), FAPGG and captopril were purchased from Sigma-Aldrich (St. Louis, USA). S-2238 was obtained from Aglyco (Beijing, China). AEBSF-HCl was purchased from Selleckchem (Houston, USA). Trizma base (Tris) was obtained from Sangon Biotech (Shanghai, China) and dimethyl sulfoxide (DMSO) from J&K Scientific (Beijing, China). All other chemicals were purchased from Sinopharm Chemical (Shanghai, China) unless otherwise indicated. 0.2 M Phosphate buffer (PB, pH 6.5), and 50 mM Tris-HCl buffer (200 mM NaCl, pH 8.3) were prepared as assay buffers for thrombin and ACE, respectively.
MBs (10 mg/mL) were diluted 10 times in PB or Tris-HCl buffer, and 10 μL of the diluted MBs (1 mg/mL) were injected into one channel of the chip using a syringe infusion pump (Harvard Apparatus, USA) and retained by an external magnet. Then, 10 μL of thrombin or ACE solution was added and incubated with MBs for two hours at room temperature to form enzyme-MB complexes. The magnet was manually controlled to move MBs back and forth to enhance the ratio of reaction. Subsequently, MBs were washed twice in assay buffer and magnetically transferred to the other channel through the fluidic bridge, whose opening and closing was controlled by a pneumatic valve. Next, 10 μL of sample solutions of tested drug and 10 μL of enzymatic substrate were sequentially infused to the channel by the pump and incubated with the enzyme. When the enzymatic reaction was finished, the MBs were retained in the channel, and air was injected into the channel from the inlet using a syringe to push all the reacted solution to a 384-well plate. The absorbance of the solution was then monitored at 405 nm (for S-2238) or 340 nm (for FAPGG) using an Infinite F200 spectrophotometer (Tecan, Männedorf, Switzerland). Moreover, after detection, the reaction channel was washed three times by assay buffer to remove unbound constituents. […]

Question: With `NCCc1ccc(S(=O)(=O)F)cc1` [AEBSF-HCl, reference compound] as the compound, how does the IC50 read?
Answer: The IC50 was 3.91 µM.
